US20090163521A1, “Novel Pyrazolopyrimidinone Derivatives” (ORCHID RESEARCH LABORATORIES LIMITED, priority 2005, published 2009)

system: TNF-α; assay: In vitro measurement of TNF-α in LPS-stimulated human PBMC; assay type: cell-based; conditions: LPS 1 μg/ml, 18 h
Experimental: This assay determines the effect of test compounds on the production of TNF α in human Peripheral Blood Mononuclear Cells (PBMC). Compounds were tested for their ability to inhibit the activity of TNF α in human PBMC. PBMC were isolated from blood (from healthy volunteers) using BD Vacutainer CPT™ (Cell preparation tube, BD Bio Science) and suspended in RPMI medium (Physiol. Res. 52: 593-598, 2003). The test compounds were pre-incubated with PBMC (0.5 million/incubation well) for 15 minutes at 37° C. and then stimulated with Lipopolysaccharide (Escherichia coli: B4; 1 μg/ml) for 18 h at 37° C. in 5% CO2. The levels of TNFα in cell culture medium were estimated using enzyme linked Immunosorbent assay performed in a 96 well format as per the procedure of the manufacturer (Cayman Chemical, Ann Arbor, USA).

| Compound | inhibition at 10 µM [%] |
| --- | --- |
| CSc1ccc(-c2nc3c(c(N)nn3C)c(=O)n2-c2ccc(F)cc2)cc1 [Example 25, 3-Amino-5-(4-fluorophenyl)-1-methyl-6-[4-(methylthio)phenyl]-1,5-dihydro-4H-pyrazolo[3,4-d]pyrimidin-4-one] | 52.9 |
| CSc1ccc(-c2nc3c(c(N)nn3C)c(=O)n2-c2ccc(Br)cc2)cc1 [Example 30, 3-Amino-5-(4-bromophenyl)-1-methyl-6-[4-(methylthio)phenyl]-1,5-dihydro-4H-pyrazolo[3,4-d]pyrimidin-4-one] | 86.6 |
| COc1ccc(-n2c(-c3ccc(N(C)C)cc3)nc3c(c(N)nn3C)c2=O)cc1 [Example 31, 3-Amino-6-[4-(dimethylamino)phenyl]-5-(4-methoxyphenyl)-1-methyl-1,5-dihydro-4H-pyrazolo[3,4-d]pyrimidin-4-one] | 87.9 |
| CSc1ccc(-c2nc3c(c(N)nn3C(C)=O)c(=O)n2-c2ccc(C)c(C)c2)cc1 [Example 37, 1-Acetyl-3-amino-5-(3,4-dimethylphenyl)-6-[(4-methylthio)phenyl]-1,5-dihydro-4H-pyrazolo[3,4-d]pyrimidin-4-one] | 29.9 |

molecular target: T1, COX-2 (Homo sapiens, UniProt P35354); assay: Human whole blood assay (LPS-induced PGE2, COX-2 inhibition); assay type: cell-based; conditions: 0.25 μM, LPS stimulated
T1 construct: Fresh blood was collected in tubes containing sodium heparin by vein puncture from healthy male volunteers; endogenous in cells; host or cells: human whole blood from healthy male volunteers, aspirin-pretreated and LPS-stimulated
T1 sequence (P35354 18-604): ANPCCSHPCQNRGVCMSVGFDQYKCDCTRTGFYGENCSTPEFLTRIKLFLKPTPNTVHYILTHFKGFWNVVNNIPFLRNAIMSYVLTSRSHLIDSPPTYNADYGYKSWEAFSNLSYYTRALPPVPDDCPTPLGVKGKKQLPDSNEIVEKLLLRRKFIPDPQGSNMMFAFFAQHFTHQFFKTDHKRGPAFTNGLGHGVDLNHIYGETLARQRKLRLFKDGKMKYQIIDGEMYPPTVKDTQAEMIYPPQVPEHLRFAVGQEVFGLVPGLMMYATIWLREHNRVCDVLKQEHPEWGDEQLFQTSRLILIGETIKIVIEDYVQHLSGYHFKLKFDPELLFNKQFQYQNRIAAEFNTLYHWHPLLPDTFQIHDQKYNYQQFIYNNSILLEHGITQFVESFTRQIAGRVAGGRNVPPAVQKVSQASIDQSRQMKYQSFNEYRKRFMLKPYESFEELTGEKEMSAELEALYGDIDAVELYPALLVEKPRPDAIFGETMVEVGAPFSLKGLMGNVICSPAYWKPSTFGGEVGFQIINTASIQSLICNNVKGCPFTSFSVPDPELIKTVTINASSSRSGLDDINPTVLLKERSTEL
Experimental: Human whole blood provides a protein and cell rich milieu appropriate for the study of biochemical efficacy of anti-inflammatory compounds such as selective COX-2 inhibitors. […] This is correlating with the observation that COX-2 inhibitors have no effect on prostaglandin E2 (PGE2) production in normal blood. These inhibitors were active only after incubation of human blood with lipopolysaccharide (LPS), which induces COX-2 production in the blood.
Fresh blood was collected in tubes containing sodium heparin by vein puncture from healthy male volunteers. The subjects should have no apparent inflammatory conditions and not taken NSAIDs for at least 7 days prior to blood collection. Blood was preincubated with aspirin in vitro (12 μg/ml, at time zero) to inactivate COX-1 for 6 hours. Then test compounds (at various concentrations) or vehicle were added to blood. After that blood was stimulated with LPS B:4 (10 μg/ml) and incubated for another 18 h at 37° C. water bath. After which the blood was centrifuged, plasma was separated and stored at −80° C. (J. Pharmacol. Exp. Ther, 271, 1705, 1994; Proc. Natl. Acad. Sci. USA, 96, 7563, 1999). The plasma was assayed for PGE2 using Cayman ELISA kit as per the procedure outlined by the manufacturer (Cayman Chemicals, Ann Arbor, USA).

| inhibition at 0.25 µM [%] | Compound |
| --- | --- |
| 26.2 | Nc1n[nH]c2nc(-c3ccccc3)n(-c3ccc(F)cc3)c(=O)c12 [Example 12, 3-Amino-5-(4-fluorophenyl)-6-phenyl-1,5-dihydro-4H-pyrazolo[3,4-d]pyrimidin-4-one] |
| 26.8 | CSc1ccc(-n2c(-c3ccc(C)cc3)nc3[nH]nc(N)c3c2=O)cc1 [Example 13, 3-Amino-5-[(4-methylthio)phenyl]-6-(4-methylphenyl)-1,5-dihydro-4H-pyrazolo[3,4-d]pyrimidin-4-one] |
| 19.3 | Cc1ccc(-n2c(-c3ccc(S(C)(=O)=O)cc3)nc3[nH]nc(N)c3c2=O)cc1 [Example 14, 3-Amino-5-(4-methylphenyl)-6-[(4-methylsulfonyl)phenyl]-1,5-dihydro-4H-pyrazolo[3,4-d]pyrimidin-4-one] |
| 20.2 | CCOc1ccc(-n2c(-c3ccc(SC)cc3)nc3[nH]nc(N)c3c2=O)cc1 [Example 15, 3-Amino-5-(4-ethoxyphenyl)-6-[(4-methylthio)phenyl]-1,5-dihydro-4H-pyrazolo[3,4-d]pyrimidin-4-one] |
| 31.4 | Cc1ccc(-n2c(-c3ccccc3)nc3[nH]nc(N)c3c2=O)cc1 [Example 16, 3-Amino-5-(4-methylphenyl)-6-phenyl-1,5-dihydro-4H-pyrazolo[3,4-d]pyrimidin-4-one] |

same assay, conditions: 10 μM, LPS stimulated

| inhibition at 10 µM [%] | Compound |
| --- | --- |
| 31.8 | CSc1ccc(-n2c(-c3ccc(F)cc3)nc3[nH]nc(N)c3c2=O)cc1 [Example 5, 3-Amino-5-[(4-methylthio)phenyl]-6-(4-fluorophenyl)-1,5-dihydro-4H-pyrazolo[3,4-d]pyrimidin-4-one] |
| 29.2 | CSc1ccc(-n2c(-c3ccccc3)nc3[nH]nc(N)c3c2=O)cc1 [Example 11, 3-Amino-5-[(4-methylthio)phenyl]-6-phenyl-1,5-dihydro-4H-pyrazolo[3,4-d]pyrimidin-4-one] |
| 23 | Cc1ccc(-n2c(-c3ccc(S(C)(=O)=O)cc3)nc3[nH]nc(N)c3c2=O)cc1 [Example 14, 3-Amino-5-(4-methylphenyl)-6-[(4-methylsulfonyl)phenyl]-1,5-dihydro-4H-pyrazolo[3,4-d]pyrimidin-4-one] |
